# Source: ChEMBL document CHEMBL5727155, “Ethynyl derivatives” (2018)
# Target: Metabotropic glutamate receptor 4 (Homo sapiens, UniProt Q14833)
# Assay: Ca2+ Mobilization In Vitro Assay: A monoclonal HEK-293 cell line stably transfected with a cDNA encoding for the human mGlu4 receptor was generated; for the work with mGlu4 Positive Allosteric Modulators (PAMs), a cell line with low receptor expression levels and low constitutive receptor activity was selected to allow the differentiation of agonistic versus PAM activity. Cells were cultured according to standard protocols (Freshney, 2000) in Dulbecco's Modified Eagle Medium with high glucose supplemented with 1 mM glutamine, 10% (vol/vol) heat-inactivated bovine calf serum, Penicillin/Streptomycin, 50 μg/ml hygromycin and 15 μg/ml blasticidin (all cell culture reagents and antibiotics from Invitrogen, Basel, Switzerland).About 24 hrs before an experiment, 5×10^4 cells/well were seeded in poly-D-lysine coated, black/clear-bottomed 96-well plates. The cells were loaded with 2.5 μM Fluo-4AM in loading buffer (1×HBSS, 20 mM HEPES) for 1 hr at 37° C. and washed five times with loading buffer. The cells were transferred into a Functional Drug Screening System 7000 (Hamamatsu, Paris, France), and 11 half logarithmic serial dilutions of test compound at 37° C. were added and the cells were incubated for 10-30 min. with on-line recording of fluorescence. […]
# Chain of Metabotropic glutamate receptor 4 (Q14833 whole entry): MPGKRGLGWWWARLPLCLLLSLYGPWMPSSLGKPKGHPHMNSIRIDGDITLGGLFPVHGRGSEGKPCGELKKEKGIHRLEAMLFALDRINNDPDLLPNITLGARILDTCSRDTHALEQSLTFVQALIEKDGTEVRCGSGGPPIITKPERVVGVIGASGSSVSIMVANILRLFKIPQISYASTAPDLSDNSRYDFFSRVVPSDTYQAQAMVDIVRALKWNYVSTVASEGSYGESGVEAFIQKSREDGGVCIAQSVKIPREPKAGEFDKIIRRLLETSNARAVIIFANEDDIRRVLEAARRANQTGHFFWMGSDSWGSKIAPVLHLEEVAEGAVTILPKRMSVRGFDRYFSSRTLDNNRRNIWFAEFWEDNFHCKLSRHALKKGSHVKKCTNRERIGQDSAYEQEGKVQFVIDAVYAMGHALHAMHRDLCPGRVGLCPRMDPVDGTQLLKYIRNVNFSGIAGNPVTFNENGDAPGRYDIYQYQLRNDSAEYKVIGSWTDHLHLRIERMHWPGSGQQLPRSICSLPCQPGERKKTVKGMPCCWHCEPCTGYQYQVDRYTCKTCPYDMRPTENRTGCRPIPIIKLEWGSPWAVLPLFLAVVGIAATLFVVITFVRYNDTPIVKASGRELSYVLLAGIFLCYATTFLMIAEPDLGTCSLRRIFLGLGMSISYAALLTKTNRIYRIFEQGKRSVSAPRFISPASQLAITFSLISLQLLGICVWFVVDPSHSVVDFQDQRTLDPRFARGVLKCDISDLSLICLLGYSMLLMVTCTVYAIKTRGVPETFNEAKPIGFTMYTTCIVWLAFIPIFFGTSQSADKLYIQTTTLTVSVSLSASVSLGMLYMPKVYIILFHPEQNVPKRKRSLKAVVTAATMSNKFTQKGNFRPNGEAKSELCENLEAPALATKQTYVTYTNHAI
smiles,measurement,value
CC(C)(C)Oc1ncc(N2CCN3C(=O)N(c4c(F)cc(C#Cc5ccccc5)cc4F)C(=O)C[C@@]3(C)C2=O)cn1,EC50,157 nM
